From patent US12371454B2, “Cyclic peptide compound having Kras inhibitory action” (priority 2019, dated 2025) come the findings set out here.

This assay has as its target T1, Kras and SOS1 (biotin-tagged human Kras loaded with GDP, His-tagged human SOS1) (Homo sapiens, UniProt P01116, G12D).
T1 construct: made in house; host or cells: E. coli (stated for Kras only)
Description: Protein-protein interaction inhibition between Kras and SOS1 (KrasGl2D-SOS PPI) using AlphaScreen. Format: binding. Particulars: AlphaScreen; biotin-tagged human Kras loaded with GDP, His-tagged human SOS1; read-out: KRAS G12D-SOS PPI IC50. Summed up:
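Read-out is acceptor-bead light at 520-620 nm, arising when 680 nm-irradiated nickel donor beads pass singlet oxygen to streptavidin acceptors. The bead pair links His-tagged SOS1 with biotin-tagged, GDP-bound Kras from E. coli.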
A general note: Bead proximity is the source of the signal in Alpha formats.

Each structure is given as a SMILES string. Starred links: 1 amine or outer side, 2 acyl side, 3 side chain; linkers in the order of their positions; H or OH if unused. Positions of bridges follow the written chain, without caps; N, C: chain ends. Non-standard residues stand in square brackets, D forms with d. Residues, ends and D or L forms follow the SMILES beside them. *: point of attachment. hPhe(3-Cl-4-CF3) = N[C@@H](CCc1ccc(C(F)(F)F)c(Cl)c1)C(=O)O; X12 = CN([C@@H](Cc1ccc(C(F)(F)F)nc1)C(=O)[*:2])[*:1]; NMePhe(4-CF3) = CN[C@@H](Cc1ccc(C(F)(F)F)cc1)C(=O)O; X82 = O=C([C@H](Cc1cccc(OC(F)(F)F)c1)N[*:1])[*:2]; hPhe(4-CF3) = N[C@@H](CCc1ccc(C(F)(F)F)cc1)C(=O)O; NMeAla(4-thiazolyl) = CN[C@@H](Cc1cscn1)C(=O)O; X17 = Cc1cncc(C[C@@H](C(=O)[*:2])N(C)[*:1])c1; NMePhe(4-Cl) = CN[C@@H](Cc1ccc(Cl)cc1)C(=O)O; NMePhe(3-F) = CN[C@@H](Cc1cccc(F)c1)C(=O)O; Phe(3-Cl) = N[C@@H](Cc1cccc(Cl)c1)C(=O)O; NMeGly(cPent) = CN[C@H](C(=O)O)C1CCCC1; Phe(3-I) = N[C@@H](Cc1cccc(I)c1)C(=O)O; Phe(3-Me) = Cc1cccc(C[C@H](N)C(=O)O)c1; NMeCha = CN[C@@H](CC1CCCCC1)C(=O)O; NMeChg = CN[C@H](C(=O)O)C1CCCCC1; NMeF = CN[C@@H](Cc1ccccc1)C(=O)O; N(CH2CH2)2CF2 = FC1(F)CCN(*)CC1; NMeD = CN[C@@H](CC(=O)O)C(=O)O; NMeL = CN[C@@H](CC(C)C)C(=O)O; NMeV = CN[C@H](C(=O)O)C(C)C; d(β3hA) = C[C@@H](N)CC(=O)O; NMeA = CN[C@@H](C)C(=O)O; Nle = CCCC[C@H](N)C(=O)O; Piperidide = C1CCN(*)CC1; Pyrrolidide = C1CCN(*)C1; dNMeA = CN[C@H](C)C(=O)O; Ac5c = NC1(C(=O)O)CCCC1; Aze = O=C(O)[C@@H]1CCN1; Nva = CCC[C@H](N)C(=O)O; CH2CMe2OH = CC(C)(O)C*; Ac3c = NC1(C(=O)O)CC1; Sar = CNCC(=O)O

T1 sequence (P01116 1-188 isoform P01116-2 G12D): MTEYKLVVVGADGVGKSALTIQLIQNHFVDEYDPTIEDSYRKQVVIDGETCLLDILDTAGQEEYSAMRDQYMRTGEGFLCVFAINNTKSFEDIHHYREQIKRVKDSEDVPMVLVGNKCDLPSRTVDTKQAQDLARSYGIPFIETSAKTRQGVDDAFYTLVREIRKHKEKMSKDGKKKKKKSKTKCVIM

On to `CC[C@H](C)[C@@H]1NC(=O)[C@H](C)N(C)C(=O)C[C@@H](C(=O)N2CCCC2)NC(=O)[C@H](C(C)C)N(C)C(=O)[C@H](Cc2ccccc2)N(C)C(=O)[C@H](Cc2ccccc2)NC(=O)[C@H](Cc2cccc(C)c2)NC(=O)CN(C)C(=O)[C@H](Cc2ccc(Cl)cc2)N(C)C(=O)CN(C)C(=O)CN(C)C1=O` [Compound 467] ([NMeA]I[Sar][Sar][NMePhe(4-Cl)][Sar][Phe(3-Me)]F[NMeF][NMeV]D-Pyrrolidide; lactam N-11), for which the IC50 worked out at 200 nM. The figure for `CC[C@H](C)[C@@H]1NC(=O)[C@H](CC(C)C)N(C)C(=O)C[C@@H](C(=O)N2CCCCC2)N(C)C(=O)[C@H](C(C)C)N(C)C(=O)C2(CC2)NC(=O)[C@@H]2CCCN2C(=O)[C@H](CCc2ccc(C(F)(F)F)c(Cl)c2)NC(=O)CN(C)C(=O)[C@H](CC2CCCCC2)N(C)C(=O)CN(C)C(=O)CN(C)C1=O` [Compound 468] ([NMeL]I[Sar][Sar][NMeCha][Sar][hPhe(3-Cl-4-CF3)]P[Ac3c][NMeV][NMeD]-Piperidide; lactam N-11) is 2.5 nM; for `CC[C@H](C)[C@@H]1NC(=O)[C@H](C)N(C)C(=O)C[C@@H](C(=O)N2CCCCC2)NC(=O)[C@H](CC(C)C)N(C)C(=O)[C@H](Cc2ccccc2)N(C)C(=O)[C@H](CC(C)C)NC(=O)[C@H](Cc2cccc(OC(F)(F)F)c2)NC(=O)CN(C)C(=O)[C@H](Cc2ccc(Cl)cc2)N(C)C(=O)CN(C)C(=O)CN(C)C1=O` [Compound 473] ([NMeA]I[Sar][Sar][NMePhe(4-Cl)][Sar][X82]L[NMeF][NMeL]D-Piperidide; lactam N-11) it is 410 nM. Take `CC[C@H](C)[C@@H]1NC(=O)[C@H](CC(C)C)N(C)C(=O)C[C@@H](C(=O)N2CCCCC2)N(C)C(=O)[C@H](C2CCCCC2)N(C)C(=O)C2(CCCC2)NC(=O)[C@H](Cc2cncc(C)c2)N(C)C(=O)[C@H](CCc2ccc(C(F)(F)F)c(Cl)c2)NC(=O)CN(C)C(=O)[C@H](CC2CCCCC2)N(C)C(=O)[C@@H]2CCN2C(=O)CN(C)C1=O` [Compound 477] ([NMeL]I[Sar][Aze][NMeCha][Sar][hPhe(3-Cl-4-CF3)][X17][Ac5c][NMeChg][NMeD]-Piperidide; lactam N-11): the half-maximal inhibitory concentration (IC50) was found to be 4.3 nM. The figure for `CC[C@H](C)[C@@H]1NC(=O)[C@H](CC(C)C)N(C)C(=O)C[C@@H](C(=O)N2CCCCC2)N(C)C(=O)[C@H](C2CCCCC2)N(C)C(=O)C2(CCCC2)NC(=O)[C@H](Cc2ccc(C(F)(F)F)nc2)N(C)C(=O)[C@H](CCc2ccc(C(F)(F)F)c(Cl)c2)NC(=O)CN(C)C(=O)[C@H](CC2CCCCC2)N(C)C(=O)[C@@H]2CCN2C(=O)[C@H](C)N(C)C1=O` [Compound 479] ([NMeL]I[NMeA][Aze][NMeCha][Sar][hPhe(3-Cl-4-CF3)][X12][Ac5c][NMeChg][NMeD]-Piperidide; lactam N-11) is 300 nM. With `CC[C@H](C)[C@@H]1NC(=O)[C@H](C)N(C)C(=O)C[C@@H](C)NC(=O)[C@H](C2CCCC2)N(C)C(=O)C2(CCCC2)NC(=O)[C@@H]2CCCN2C(=O)[C@H](CCc2ccc(C(F)(F)F)c(Cl)c2)NC(=O)[C@@H](C)N(C)C(=O)[C@H](Cc2ccccc2)N(C)C(=O)CN(C)C(=O)CN(C)C1=O` [Compound 482] (cyclo([Ac5c][NMeGly(cPent)][d(β3hA)][NMeA]I[Sar][Sar][NMeF][dNMeA][hPhe(3-Cl-4-CF3)]P)) the figure was 170 nM. The figure for `CCCC[C@@H]1NC(=O)[C@H](Cc2cccc(I)c2)NC(=O)CN(C)C(=O)[C@H](Cc2ccc(Cl)cc2)N(C)C(=O)CN(C)C(=O)CN(C)C(=O)[C@H]([C@@H](C)CC)NC(=O)[C@H](CC(C)C)N(C)C(=O)C[C@@H](C(=O)N2CCCCC2)N(C)C(=O)[C@H](CC(C)C)NC(=O)[C@H](Cc2cccc(F)c2)N(C)C1=O` [Compound 483] ([NMeL]I[Sar][Sar][NMePhe(4-Cl)][Sar][Phe(3-I)][Nle][NMePhe(3-F)]L[NMeD]-Piperidide; lactam N-11) is 17 nM; for `CC[C@H](C)[C@@H]1NC(=O)[C@H](CC(C)C)N(C)C(=O)C[C@@H](C(=O)N2CCCCC2)N(C)C(=O)[C@H](C(C)C)N(C)C(=O)[C@@H](C)NC(=O)[C@H](CC(=O)N2CCC(F)(F)CC2)N(C)C(=O)[C@H](CCc2ccc(C(F)(F)F)c(Cl)c2)NC(=O)CN(C)C(=O)[C@H](CC2CCCCC2)N(C)C(=O)CN(C)C(=O)CN(C)C1=O` [Compound 493] ([NMeL]I[Sar][Sar][NMeCha][Sar][hPhe(3-Cl-4-CF3)][NMeD](N(CH2CH2)2CF2)[dA][NMeV][NMeD]-Piperidide; lactam N-11) it is 300 nM; for `CCC[C@@H]1NC(=O)[C@H](CC(C)C)N(C)C(=O)C[C@@H](C(=O)N2CCCCC2)N(C)C(=O)[C@H](C2CCCCC2)N(C)C(=O)C2(CCCC2)NC(=O)[C@@H]2CCCN2C(=O)[C@H](CCc2ccc(C(F)(F)F)c(Cl)c2)NC(=O)CN(C)C(=O)[C@H](CC2CCCCC2)N(C)C(=O)CN(C)C(=O)CN(C)C1=O` [Compound 495] ([NMeL][Nva][Sar][Sar][NMeCha][Sar][hPhe(3-Cl-4-CF3)]P[Ac5c][NMeChg][NMeD]-Piperidide; lactam N-11) it is 3.2 nM. In the case of `CCCC[C@@H]1NC(=O)[C@H](Cc2cccc(I)c2)NC(=O)CN(C)C(=O)[C@H](Cc2ccc(Cl)cc2)N(C)C(=O)CN(C)C(=O)CN(C)C(=O)[C@H]([C@@H](C)CC)NC(=O)[C@H](CC(C)C)N(C)C(=O)C[C@@H](C(=O)N2CCCCC2)N(C)C(=O)[C@H](CC(C)C)NC(=O)[C@H](Cc2ccc(C(F)(F)F)cc2)N(C)C1=O` [Compound 498] ([NMeL]I[Sar][Sar][NMePhe(4-Cl)][Sar][Phe(3-I)][Nle][NMePhe(4-CF3)]L[NMeD]-Piperidide; lactam N-11), the IC50 came out at 49 nM. Consider `CC[C@H](C)[C@@H]1NC(=O)[C@H](C)N(C)C(=O)C[C@@H](C(=O)N2CCCC2)NC(=O)[C@H](CC(C)C)NC(=O)[C@H](Cc2ccccc2)N(C)C(=O)[C@H](CC(C)C)NC(=O)[C@H](Cc2cccc(Cl)c2)NC(=O)CN(C)C(=O)[C@H](Cc2ccc(Cl)cc2)N(C)C(=O)CN(C)C(=O)CN(C)C1=O` [Compound 499] ([NMeA]I[Sar][Sar][NMePhe(4-Cl)][Sar][Phe(3-Cl)]L[NMeF]LD-Pyrrolidide; lactam N-11), for which the IC50 turned out to be 85 nM.

As to `CC[C@H](C)[C@@H]1NC(=O)[C@H](CC(C)C)N(C)C(=O)C[C@@H](C(=O)N2CCCCC2)N(C)C(=O)[C@H](C2CCCCC2)N(C)C(=O)C2(CCCC2)NC(=O)[C@H](Cc2cscn2)N(C)C(=O)[C@H](CCc2ccc(C(F)(F)F)c(Cl)c2)NC(=O)CN(C)C(=O)[C@H](CC2CCCCC2)N(C)C(=O)CN(C)C(=O)CN(C)C1=O` [Compound 500] ([NMeL]I[Sar][Sar][NMeCha][Sar][hPhe(3-Cl-4-CF3)][NMeAla(4-thiazolyl)][Ac5c][NMeChg][NMeD]-Piperidide; lactam N-11), the IC50 was determined as 4.8 nM.

In the case of `CC[C@H](C)[C@@H]1NC(=O)[C@H](C)N(C)C(=O)C[C@@H](C(=O)N2CCCC2)NC(=O)[C@H](CC(C)C)N(C)C(=O)[C@H](Cc2ccccc2)N(C)C(=O)[C@H](COCC(C)(C)O)NC(=O)[C@H](CCc2ccc(C(F)(F)F)cc2)NC(=O)CN(C)C(=O)[C@H](Cc2ccc(Cl)cc2)N(C)C(=O)CN(C)C(=O)CN(C)C1=O` [Compound 502] ([NMeA]I[Sar][Sar][NMePhe(4-Cl)][Sar][hPhe(4-CF3)]S(CH2CMe2OH)[NMeF][NMeL]D-Pyrrolidide; lactam N-11), the IC50 was found to be 47 nM.

By IC50 is commonly meant the concentration needed to halve the response being measured.
